The values below come from publication PMC12751012, “Nanoscale Direct-to-Biology Optimization and Structural Insights into Selective S. aureus TrmD Inhibitors” (Journal of Medicinal Chemistry, 2025).

This experiment concerns the target T1, S. aureus TrmD (Staphylococcus aureus, UniProt Q2FZ43).
T1 construct: made in house; host or cells: E. coli BL21
T1 sequence (Q2FZ43 1-245): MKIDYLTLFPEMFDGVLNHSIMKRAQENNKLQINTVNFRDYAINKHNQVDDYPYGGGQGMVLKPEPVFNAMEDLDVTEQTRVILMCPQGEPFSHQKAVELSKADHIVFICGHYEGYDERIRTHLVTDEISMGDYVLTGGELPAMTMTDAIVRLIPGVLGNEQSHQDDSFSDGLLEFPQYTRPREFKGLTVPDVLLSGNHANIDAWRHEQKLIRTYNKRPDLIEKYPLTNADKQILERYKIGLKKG
The experiment can be described thus: nanoSAR direct-to-biology FP displacement screening of crude triazoles. Type of experiment: binding. The settings on record: crude triazole at 1 μM, assuming full conversion; 500 nM TrmD, 10 nM tracer 4; read-out: % displaced tracer. The source says: Next, we conducted an S. aureus TrmD-targeting nanoSAR study. For this, alkyne 7 was reacted on a 96 nmol scale with an in-house diversity-oriented azide library (N = 320, mean pairwise Tanimoto similarity = 0.11) designed to cover a large chemical fragment space, generating a panel of 320 crude triazoles ready for FP assay investigation. The composition of the azide library is designed to be chemically diverse in several categories, including physicochemical properties such as polar surface area, lipophilicity, and the number of hydrogen bond donors and acceptors, as well as structural features like the number of aromatic rings (Figure S23). A complete list of chemical structures included in the azide library can be found in Table S4. In situ reaction conditions for CuAAC were adapted from Gehrtz et al., utilizing CuSO4, which is reduced in situ to Cu(I) by sodium ascorbate and stabilized by TBTA. Degassed water and DMSO (1:1) were used as solvents to prevent the oxidation from Cu(I) to Cu(II). For the synthesis of the triazole library, a master mix was prepared, containing all reaction components except the azides. All reactions were started by the addition of the respective azide in 24 μL at a final product concentration of 4 mM (96 nmol). Reaction mixtures were incubated for 16 h at room temperature and under an argon atmosphere in sealed 96-well plates.
For FP assay screening, we used 500 nM of S. aureus TrmD and 10 nM of tracer 4 in a total volume of 40 μL in 96-well plates. We performed control measurements and defined 10 nM of tracer 4 in buffer as 100% displacement and the DMSO control as 0% tracer displacement. […] The results of the FP screening were visualized in a waterfall plot and plate-based heatmaps (Figure , Figure S3).
Fluorescence polarization (FP) assays were performed as follows. The assays for H. influenzae TrmD have been described previously. All assays were conducted in technical triplicate using black 96-well half area plates. For the FP assays, a tracer (20 nM Cy5TPD for E. coli and H. influenzae TrmD, 10 nM tracer 4 for S. aureus TrmD) was mixed with the respective enzyme (2 μM E. coli TrmD, 2 μM H. influenzae TrmD, 500 nM S. aureus TrmD) in buffer (E. coli and H. influenzae TrmD: 50 mM HEPES, 500 mM NaCl, 5% Glycerol, pH 7.5, S. aureus TrmD: 40 mM Tris HCl, 100 mM NaCl, 10 mM MgCl2, 5% Glycerol, pH 7.5). The compounds were added in varying concentrations for K D-value determination. […] The Z-factor for tracer 4 was determined by measuring 48 replicates of the free tracer (positive controls, PC) and 48 replicates of a mixture of enzyme and tracer (negative controls, NC). The Z-factor is defined in terms of the means (μ) and standard deviations (σ) of the positive and negative controls and calculated as Z = 1–(3*(σnc + σpc)/(μnc–μpc)). […] Polarization values (mP) were determined from polarization-specific parallel and orthogonal fluorescence intensities. K D-values were calculated in GraphPad Prism 8.0.1 using the four-parameter Hill equation: y(% tracer bound) = bottom + ([ligand]-slope) × (top–bottom)/([ligand]-slope + K Dslope).
A commercial azide diversity library (Enamine) containing 320 azides at a concentration of 100 mM in DMSO in a 96-well tube rack was employed for this nanoSAR study. For the reaction of the azides with alkyne 7 via CuAAC, a master mix was prepared. […] The solvents were degassed with argon to avoid oxidation of the copper(I) during the reaction. To each well of a 96-well PCR plate (Applied Biosystems MicroAmp) were added 23 μL of the master mix and 1 μL of the 100 mM azide stock. The final concentrations in the Mastermix were: 8.7 mM sodium ascorbate (8.3 mM in reaction well), 1.1 mM TBTA (1.0 mM in reaction well), 4.3 mM 7 (4.1 mM in reaction well), 1.3 mM CuSO4×5 H2O (1.2 mM in reaction well).

As to `Cc1ccc(O)c(Cn2cc(-c3c[nH]c4nc[nH]c(=O)c34)nn2)n1` [Compound 02C01, O=C1NC=NC=2NC=C(C=3N=NN(C3)Cc4nc(ccc4O)C)C12], the inhibition at 1 µM was found to be 32%.

`CC(C)(C)OC(=O)N1CCC[C@H](CCn2cc(-c3c[nH]c4nc[nH]c(=O)c34)nn2)CC1` [Compound 03F11, O=C(OC(C)(C)C)N1CC[C@@H](CCN2N=NC(C=3C=4C(=O)NC=NC4NC3)=C2)CCC1]: the inhibition at 1 µM came to 71%.

Consider `O=c1[nH]cnc2[nH]cc(-c3cn([C@H](CC4CCCCC4)c4ncccn4)nn3)c12` [Compound 02G07, O=C1NC=NC=2NC=C(C=3N=NN(C3)[C@@H](c4ncccn4)CC5CCCCC5)C12], for which the inhibition at 1 µM is 30%.

For `N#CCC1(Cn2cc(-c3c[nH]c4nc[nH]c(=O)c34)nn2)CC1` [Compound 03A06, O=C1NC=NC=2NC=C(C=3N=NN(C3)CC4(CC#N)CC4)C12], the inhibition at 1 µM was 65%.

In the case of `CC[C@H](c1ccccn1)n1cc(-c2c[nH]c3nc[nH]c(=O)c23)nn1` [Compound 04A02, O=C1NC=NC=2NC=C(C=3N=NN(C3)[C@@H](c4ncccc4)CC)C12], the inhibition at 1 µM was 15%.

In the case of `Cc1nnc(Cn2cc(-c3c[nH]c4nc[nH]c(=O)c34)nn2)o1` [Compound 01C02, O=C1NC=NC=2NC=C(C=3N=NN(C3)CC=4OC(=NN4)C)C12], the inhibition at 1 µM stood at 27%.

In the case of `Nc1ccc(Cl)c(-n2cc(-c3c[nH]c4nc[nH]c(=O)c34)nn2)c1` [Compound 02E08, Clc1c(N2N=NC(C=3C=4C(=O)NC=NC4NC3)=C2)cc(N)cc1], the inhibition at 1 µM is 13%.

With `O=c1[nH]cnc2[nH]cc(-c3cn(C[C@H]4CCNC4)nn3)c12` [Compound 03C12, O=C1NC=NC=2NC=C(C=3N=NN(C3)C[C@@H]4C[NH2+]CC4)C12], the inhibition at 1 µM came to 74%.

As for `CN(CCn1cc(-c2c[nH]c3nc[nH]c(=O)c23)nn1)Cc1cccc(F)c1` [Compound 02H12, Fc1cc(ccc1)C[N@H+](CCN2N=NC(C=3C=4C(=O)NC=NC4NC3)=C2)C], the inhibition at 1 µM was 65%.

With `O=c1[nH]cnc2[nH]cc(-c3cn(C[C@@H]4C[C@@H]4C(F)(F)F)nn3)c12` [Compound 03E06, FC(F)(F)[C@@H]1[C@H](CN2N=NC(C=3C=4C(=O)NC=NC4NC3)=C2)C1], the inhibition at 1 µM was found to be 34%.

`O=c1[nH]cnc2[nH]cc(-c3cn(-c4ccc(C(F)(F)F)cc4)nn3)c12` [Compound 03B09, FC(F)(F)c1ccc(N2N=NC(C=3C=4C(=O)NC=NC4NC3)=C2)cc1]: the inhibition at 1 µM amounted to 15%.

As for `Cc1cccc(CCn2cc(-c3c[nH]c4nc[nH]c(=O)c34)nn2)n1` [Compound 03H03, O=C1NC=NC=2NC=C(C=3N=NN(C3)CCc4nc(ccc4)C)C12], the inhibition at 1 µM amounted to 26%.

`C[C@@H](Cn1cc(-c2c[nH]c3nc[nH]c(=O)c23)nn1)c1ccccn1` [Compound 03C10, O=C1NC=NC=2NC=C(C=3N=NN(C3)C[C@@H](c4ncccc4)C)C12]: the inhibition at 1 µM came to 63%.

Consider `O=c1[nH]cnc2[nH]cc(-c3cn(CC4CCCC4)nn3)c12` [Compound 03E11, O=C1NC=NC=2NC=C(C=3N=NN(C3)CC4CCCC4)C12], for which the inhibition at 1 µM worked out at 39%.

Consider `O=c1[nH]cnc2[nH]cc(-c3cn(-c4cc(F)ccc4F)nn3)c12` [Compound 02F10, Fc1c(N2N=NC(C=3C=4C(=O)NC=NC4NC3)=C2)cc(F)cc1], for which the inhibition at 1 µM amounted to 15%.

In the case of `O=c1[nH]cnc2[nH]cc(-c3cn(C[C@H]4COCCO4)nn3)c12` [Compound 03D10, O=C1NC=NC2=C1C(C3=CN(C[C@H]4COCCO4)N=N3)=CN2], the inhibition at 1 µM came to 57%.

As to `O=c1[nH]cnc2[nH]cc(-c3cn(CCCN4CCOCC4)nn3)c12` [Compound 03E09, O=C1NC=NC=2NC=C(C=3N=NN(C3)CCC[NH+]4CCOCC4)C12], the inhibition at 1 µM stood at 66%.

On to `NC(=O)C1(n2cc(-c3c[nH]c4nc[nH]c(=O)c34)nn2)CC1` [Compound 04H02, O=C1NC=NC=2NC=C(C=3N=NN(C3)C4(C(=O)N)CC4)C12], for which the inhibition at 1 µM turned out to be 33%.

Regarding `O=c1[nH]cnc2[nH]cc(-c3cn(CCn4cnc5ccccc54)nn3)c12` [Compound 03B04, O=C1NC=NC=2NC=C(C=3N=NN(C3)CCN4c5c(N=C4)cccc5)C12], the inhibition at 1 µM was 71%.

Turning to `O=c1[nH]cnc2[nH]cc(-c3cn(-c4ccc5nccnc5c4)nn3)c12` [Compound 02B02, O=C1NC=NC=2NC=C(C=3N=NN(c4cc5nccnc5cc4)C3)C12], the inhibition at 1 µM came to 8.54%.

Consider `COc1ccc(C(F)(F)F)cc1-n1cc(-c2c[nH]c3nc[nH]c(=O)c23)nn1` [Compound 02A04, FC(F)(F)c1cc(N2N=NC(C=3C=4C(=O)NC=NC4NC3)=C2)c(OC)cc1], for which the inhibition at 1 µM stood at 20%.

For `O=c1[nH]cnc2[nH]cc(-c3cn(-c4ccc5c(c4)CNCC5)nn3)c12` [Compound 01G04, O=C1NC=NC=2NC=C(C=3N=NN(c4cc5c(cc4)CC[NH2+]C5)C3)C12], the inhibition at 1 µM was 33%.

`O=c1[nH]cnc2[nH]cc(-c3cn(-c4ccc5c(c4)CCC5)nn3)c12` [Compound 01F08, O=C1NC=NC=2NC=C(C=3N=NN(c4cc5c(cc4)CCC5)C3)C12]: the inhibition at 1 µM was found to be 5%.

As for `CC(F)(F)c1cccc(Cn2cc(-c3c[nH]c4nc[nH]c(=O)c34)nn2)n1` [Compound 01H01, FC(F)(c1nc(ccc1)CN2N=NC(C=3C=4C(=O)NC=NC4NC3)=C2)C], the inhibition at 1 µM was determined as 63%.

For the compound `NCc1cccc(-n2cc(-c3c[nH]c4nc[nH]c(=O)c34)nn2)c1` [Compound 03G11, O=C1NC=NC=2NC=C(C=3N=NN(c4cc(ccc4)C[NH3+])C3)C12], the inhibition at 1 µM was 32%.

On to `O=c1[nH]cnc2[nH]cc(-c3cn(Cc4ccno4)nn3)c12` [Compound 04F02, O=C1NC=NC=2NC=C(C=3N=NN(C3)CC=4ON=CC4)C12], for which the inhibition at 1 µM amounted to 92%.

For the compound `O=c1[nH]cnc2[nH]cc(-c3cn(Cc4ccncc4)nn3)c12` [Compound 04A04, O=C1NC=NC=2NC=C(C=3N=NN(C3)Cc4ccncc4)C12], the inhibition at 1 µM worked out at 11%.

Regarding `COC(=O)c1cc(-n2cc(-c3c[nH]c4nc[nH]c(=O)c34)nn2)ccn1` [Compound 03F03, O=C(OC)c1nccc(N2N=NC(C=3C=4C(=O)NC=NC4NC3)=C2)c1], the inhibition at 1 µM came to 10%.

As for `O=C(NCCn1cc(-c2c[nH]c3nc[nH]c(=O)c23)nn1)C(F)(F)F` [Compound 02F11, FC(F)(F)C(=O)NCCN1N=NC(C=2C=3C(=O)NC=NC3NC2)=C1], the inhibition at 1 µM stood at 41%.

Take `Cc1ccc(Cn2cc(-c3c[nH]c4nc[nH]c(=O)c34)nn2)o1` [Compound 01H03, O=C1NC=NC=2NC=C(C=3N=NN(C3)CC=4OC(=CC4)C)C12]: the inhibition at 1 µM was determined as 33%.

As to `CN(C)CCn1cc(-c2c[nH]c3nc[nH]c(=O)c23)nn1` [Compound 03A02, O=C1NC=NC=2NC=C(C=3N=NN(C3)CC[NH+](C)C)C12], the inhibition at 1 µM was determined as 44%.

In the case of `CCN(CC)CCn1cc(-c2c[nH]c3nc[nH]c(=O)c23)nn1` [Compound 01H09, O=C1NC=NC=2NC=C(C=3N=NN(C3)CC[NH+](CC)CC)C12], the inhibition at 1 µM was found to be 27%.

In the case of `O=c1[nH]cnc2[nH]cc(-c3cn(CCO[C@H]4CCOC4)nn3)c12` [Compound 02B12, O=C1NC=NC=2NC=C(C=3N=NN(C3)CCO[C@@H]4COCC4)C12], the inhibition at 1 µM is 56%.
